The text below walks through data of PMC7986605 (Journal of Neuroscience Research, 2021).

Molecules are shown by their SMILES.

The first data set relates to primary hippocampal/cortical neuronal and glial cultures. To be noted: Sprague-Dawley, rat.
In the case of `CSc1ccc2c(c1)N(CCC1CCCCN1C)c1ccccc1S2` (stereo not drawn) [thioridazine], the “concentrations at which the compound was toxic/cytotoxic” value is “above 1 µM”.

Still in this data set, the particulars now being: α-synuclein oligomer 1.0 μM; 0.5–20 µM.
Take `CC[C@H](C)C(=O)O[C@H]1C[C@@H](C)C=C2C=C[C@H](C)[C@H](CC[C@@H]3C[C@@H](O)CC(=O)O3)[C@H]21` [lovastatin]: the “inhibition of α-synuclein oligomer-induced trafficking deficits (in words)” value (from here on “inhibition”) is given as “inhibited deficits at low concentrations”.

For `CCCCC1=NC2(CCCC2)C(=O)N1Cc1ccc(-c2ccccc2-c2nnn[nH]2)cc1` [irbesartan], the “inhibition” value is listed as “weakly inhibited”.

As to `CCCCCCNC(=O)n1cc(F)c(=O)[nH]c1=O` [carmofur], the “inhibition” value is recorded as “weakly inhibited”.

With `CC(NC(C)(C)C)C(=O)c1cccc(Cl)c1` (stereo not drawn) [bupropion], the “inhibition” value is reported as “weakly inhibited”.

As to `NC(=O)N1c2ccccc2C=Cc2ccccc21` [carbamazepine], the “inhibition” value is on record as “inhibited deficits at low concentrations”.
